Test results from ChEMBL document CHEMBL1201862, “PubChem BioAssay data set” (2004).
Values joined by “and” are separate entries in the source; they are usually repeats but may differ in a detail not shown here. Equal values may be shown once.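 96-well plates; 48 h exposure; 5 concentrations. Endpoints by linear interpolation between flanking doses. Not reached: highest tested concentration assigned. GI50: concentration for 50% inhibition of growth.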 Active and inactive are the calls of the source. No stated cut-off is given here; in the data, active = GI50 up to about 1.1 µM and inactive = higher.

Columns and labels:
Test in all cases: NCI-60 cell line screen, 48 h
SF-295 = tested on: SF-295
BT-549 = tested on: BT-549
NCI-H23 = tested on: NCI-H23
SK-MEL-2 = tested on: SK-MEL-2
SK-MEL-28 = tested on: SK-MEL-28
SW-620 = tested on: SW-620
M14 = tested on: M14
ACHN = tested on: ACHN
LOX IMVI = tested on: LOX IMVI
HOP-62 = tested on: HOP-62
NCI-H226 = tested on: NCI-H226
MDA-MB-231 = tested on: MDA-MB-231
COLO 205 = tested on: COLO 205
HCT-116 = tested on: HCT-116
HCT-15 = tested on: HCT-15
SK-MEL-5 = tested on: SK-MEL-5
PC-3 = tested on: PC-3
Malme-3M = tested on: Malme-3M
HCC 2998 = tested on: HCC 2998

Structure (SMILES)	GI50 (SF-295)	GI50 (BT-549)	GI50 (NCI-H23)	GI50 (SK-MEL-2)	GI50 (SK-MEL-28)	GI50 (SW-620)	GI50 (M14)	GI50 (ACHN)	GI50 (LOX IMVI)	GI50 (HOP-62)	GI50 (NCI-H226)	GI50 (MDA-MB-231)	GI50 (COLO 205)	GI50 (HCT-116)	GI50 (HCT-15)	GI50 (SK-MEL-5)	GI50 (PC-3)	GI50 (Malme-3M)	GI50 (HCC 2998)
COC(=O)Cc1c(-c2c(CC(=O)OC)c3ccccc3n2C2OC(COC3OC(COC(C)=O)C(OC(C)=O)C(OC(C)=O)C3OC(C)=O)C(O)C(O)C2O)[nH]c2ccccc12 (configuration not stated)	36.6 µM (inactive)	44.7 µM (inactive)	> 100 µM (inactive)	24.4 µM (inactive)	> 100 µM (inactive)	> 100 µM (inactive)	> 100 µM (inactive)	> 100 µM (inactive)	> 100 µM (inactive)	23 µM (inactive)	61.4 µM (inactive)	29.2 µM (inactive)	> 100 µM (inactive)	> 100 µM (inactive)	> 100 µM	> 100 µM (inactive)	> 100 µM (inactive)		
N#C[C@H](C(=O)c1ccccc1F)c1nc2ccccc2s1	16.1 µM (inactive)	46.6 µM (inactive)	46.3 µM (inactive)	16.6 µM (inactive)	36.5 µM (inactive)	32.3 µM (inactive)	21.8 µM (inactive)	49.1 µM (inactive)	33 µM (inactive)	20.5 µM (inactive)	21.9 µM (inactive)	35.8 µM (inactive)	23.7 µM (inactive)	23.5 µM (inactive)	54.5 µM	26.9 µM (inactive)	24.2 µM (inactive)	10.4 µM (inactive)	
CCOC(=O)C(C)(C(=O)OCC)/C(Cl)=C\Cl	> 100 µM (inactive)		> 100 µM (inactive)		> 100 µM (inactive)	> 100 µM (inactive)	> 100 µM (inactive)	> 100 µM (inactive)	> 100 µM (inactive)	> 100 µM (inactive)	> 100 µM (inactive)	> 100 µM (inactive)	> 100 µM (inactive)	> 100 µM (inactive)		> 100 µM (inactive)	> 100 µM (inactive)	> 100 µM (inactive)	0.0434 µM (active)
CSc1nc(C)c(CCCl)c(Cl)n1	> 100 µM (inactive)	87.7 µM (inactive)	> 100 µM (inactive)		> 100 µM (inactive)	42.6 µM (inactive)	32.4 µM (inactive)	> 100 µM (inactive)	29.6 µM (inactive)	> 100 µM (inactive)		> 100 µM (inactive)	35.2 µM (inactive)	36.6 µM (inactive)	> 100 µM	42.1 µM (inactive)	> 100 µM (inactive)	> 100 µM (inactive)	> 100 µM (inactive)
COc1ccc2c(c1)CCc1[nH]c3ccccc3c1CCCC2	> 10 µM (inactive)	> 10 µM (inactive)	> 10 µM (inactive)		> 10 µM (inactive)	> 10 µM (inactive)	> 10 µM (inactive)	> 10 µM (inactive)	> 10 µM (inactive)	> 10 µM (inactive)		> 10 µM (inactive)	> 10 µM (inactive)	> 10 µM (inactive)	> 10 µM	> 10 µM (inactive)	> 10 µM (inactive)	> 10 µM (inactive)	> 10 µM (inactive)
O=C(O)C(Cc1ccccc1)NCc1c(O)ccc2c(-c3ccccc3)cc(=O)oc12 (configuration not stated)	> 100 µM (inactive)		> 100 µM (inactive)	> 100 µM (inactive)	> 100 µM (inactive)	> 100 µM (inactive)	> 100 µM (inactive)	> 100 µM (inactive)	> 100 µM (inactive)	> 100 µM (inactive)	> 100 µM (inactive)	> 100 µM (inactive)	> 100 µM (inactive)	> 100 µM (inactive)	> 100 µM	> 100 µM (inactive)	> 100 µM (inactive)	> 100 µM (inactive)	> 100 µM (inactive)
CCc1cn2c(/C=N/N=C(N)N)c(-c3cc(C)c(Cl)cc3Cl)nc2s1	0.7 µM (active)	1.64 µM (inactive)	1.77 µM (inactive)	1.82 µM (inactive)	1.48 µM (inactive)	1.64 µM (inactive)	1.65 µM (inactive)	1.68 µM (inactive)	1.35 µM (inactive)		1.26 µM (inactive)	0.865 µM (active)	1.64 µM (inactive)	0.785 µM (active)	1.62 µM	1.63 µM (inactive)	1.56 µM (inactive)	1.37 µM (inactive)	
CCOc1cc2c(cc1O)/C(=N\O)C[C@@H]1[C@@H]2CC[C@]2(C)[C@@H](O)CC[C@@H]12		0.0371 µM (active)	0.0455 µM (active)		< 0.0276 µM (active)		0.0144 µM (active)	0.126 µM (active)	< 0.0363 µM (active)	< 0.0201 µM (active)	0.0817 µM (active)		8.79 µM (inactive)	< 0.0211 µM (active)	< 0.0199 µM	0.01 µM (active)			2.72 µM (inactive)
ON(CCc1ccncc1)Cc1ccccc1	> 100 µM (inactive)	> 100 µM (inactive)	> 100 µM (inactive)		> 100 µM (inactive)	> 100 µM (inactive)	> 100 µM (inactive)	> 100 µM (inactive)	> 100 µM (inactive)	> 100 µM (inactive)	> 100 µM (inactive)		> 100 µM (inactive)	> 100 µM (inactive)	> 100 µM	> 100 µM (inactive)		> 100 µM (inactive)	
Oc1ccccc1/C=N/c1ccc(-c2nc3ccccc3[nH]2)cc1	71 µM (inactive)	12.8 µM (inactive)	50.5 µM (inactive)	> 100 µM (inactive)	> 100 µM (inactive)	90.2 µM (inactive)	63.4 µM (inactive)	> 100 µM (inactive)	> 100 µM (inactive)	> 100 µM (inactive)	> 100 µM (inactive)	40.5 µM (inactive)	47.2 µM (inactive)	53.6 µM (inactive)	29.6 µM	27.8 µM (inactive)	50.5 µM (inactive)	93.3 µM (inactive)	
C=C1CCCCCCCCCCC1[S+]([O-])c1ccccc1 (configuration not stated)	42 µM (inactive)		58.5 µM (inactive)	> 100 µM (inactive)	50.2 µM (inactive)		27.7 µM (inactive)	29.8 µM (inactive)	28.8 µM (inactive)	60.8 µM (inactive)	44.7 µM (inactive)	24.5 µM (inactive)	25.6 µM (inactive)	30.5 µM (inactive)	41.7 µM	29.5 µM (inactive)	31.5 µM (inactive)	> 100 µM (inactive)	> 100 µM (inactive)
C=CCc1c(C)nc(C)nc1N/N=C/C=C/c1ccccc1	19.5 µM (inactive)	23.8 µM (inactive)	27.9 µM (inactive)	36.7 µM (inactive)	41 µM (inactive)	51.8 µM (inactive)	31.2 µM (inactive)	> 100 µM (inactive)	39.1 µM (inactive)	16.5 µM (inactive)	> 100 µM (inactive)	> 100 µM (inactive)	24.8 µM (inactive)	36.1 µM (inactive)	35.4 µM	20.3 µM (inactive)	34.9 µM (inactive)	70 µM (inactive)	
COc1c(O)cc(/C=C/c2cc(O)cc3c2[C@@]2(C(=O)O3)c3c(O)cc(O)cc3OC2c2cccc(O)c2)cc1O (some centres not stated)		23.7 µM (inactive)	81.7 µM (inactive)	94 µM (inactive)	35.2 µM (inactive)	44.2 µM (inactive)	95.3 µM (inactive)	27.4 µM (inactive)	43.7 µM (inactive)	> 100 µM (inactive)		> 100 µM (inactive)	41.2 µM (inactive)	51.6 µM (inactive)	30.5 µM	32 µM (inactive)	51.8 µM (inactive)	> 100 µM (inactive)	
O=C(NC(Cl)(C(F)(F)F)C(F)(F)F)c1ccc(F)cc1	> 100 µM (inactive)		> 100 µM (inactive)	> 100 µM (inactive)	> 100 µM (inactive)	> 100 µM (inactive)	> 100 µM (inactive)	> 100 µM (inactive)	> 100 µM (inactive)	> 100 µM (inactive)	> 100 µM (inactive)	> 100 µM (inactive)	> 100 µM (inactive)	> 100 µM (inactive)	> 100 µM	> 100 µM (inactive)	> 100 µM (inactive)	> 100 µM (inactive)	> 100 µM (inactive)
CCOC(=O)/C=C(/C(=O)OCC)n1cc(Cl)c(=O)n(CC(=O)OCC)c1=O	> 25 µM (inactive)	5.92 µM (inactive)	5.74 µM (inactive)	4.84 µM (inactive)	5.02 µM (inactive)	0.995 µM (active)	4.57 µM (inactive)	3.4 µM (inactive)	4.37 µM (inactive)	22.4 µM (inactive)	> 25 µM (inactive)	5.71 µM (inactive)	0.787 µM (active)	4.97 µM (inactive)	5.46 µM	5.66 µM (inactive)	4.76 µM (inactive)	6.11 µM (inactive)	
COC(=O)CC(C(C(C)=O)C(=O)OCc1ccccc1)N1C(=O)OC(c2ccccc2)C1c1ccccc1 (configuration not stated)	19.5 µM (inactive) and 30.8 µM (inactive)		46.9 µM (inactive) and 55.3 µM (inactive)	61.5 µM (inactive) and 83.4 µM (inactive)	65.9 µM (inactive) and 97.7 µM (inactive)	> 100 µM (inactive)		> 100 µM (inactive)	78.5 µM (inactive)	54.1 µM (inactive)			72.4 µM (inactive) and 77.4 µM (inactive)	39.3 µM (inactive) and 24.2 µM (inactive)	52.2 µM and 62.5 µM	60.1 µM (inactive)		> 100 µM (inactive)	> 100 µM (inactive) and 89.3 µM (inactive)
